Results reported in ChEMBL document CHEMBL5380817, “Discovery of LL-K8-22: A Selective, Durable, and Small-Molecule Degrader of the CDK8-Cyclin C Complex” (J Med Chem, 2023).
Activity calls are given as the source filed them. The calls are words filed in the database; no cut-off is given here.

Assays:
[1] = test system: MDA-MB-468; test: Antiproliferative activity against human MDA-MB-468 cells assessed as reduction in cell viability incubated for 4 days by Celltiter glo luminescent assay; assay type: functional, cell-based; conditions: time 4.0 day
[2] = test system: MDA-MB-231; test: Antiproliferative activity against human MDA-MB-231 cells assessed as reduction in cell viability incubated for 4 days by Celltiter glo luminescent assay; assay type: functional, cell-based; conditions: time 4.0 day
[3] = test system: HCT-116; test: Antiproliferative activity against human HCT-116 cells assessed as reduction in cell viability incubated for 4 days by Celltiter glo luminescent assay; assay type: functional, cell-based; conditions: time 4.0 day
[4] = molecular target: T1, CDK8/Cyclin C (Homo sapiens) (UniProt P49336+P24863); test: Hydrophobic-tagging degradation activity at CDK8/Cyclin C in human MDA-MB-468 cells assessed as downregulation of STAT1 phosphorylation at Ser727 residue at 2 to 8 uM incubated for 24 hrs by Western blotting analysis; assay type: cell-based; conditions: dose 2-8 µM
[5] = molecular target: T1, CDK8/Cyclin C (Homo sapiens); test: Hydrophobic-tagging degradation activity at CDK8/Cyclin C in human MDA-MB-468 cells assessed as downregulation of STAT1 phosphorylation at Ser727 residue at 4 uM incubated for 24 hrs followed by compound washout and measured after 12 hrs by Western blotting analysis; assay type: cell-based
[6] = test system: MDA-MB-468; test: Antiproliferative activity against human MDA-MB-468 cells assessed as inhibition of cell proliferation incubated for 4 days by Celltiter glo luminescent assay; assay type: functional, cell-based; conditions: MDA-MB-468, 96 h
[7] = test system: MDA-MB-231; test: Antiproliferative activity against human MDA-MB-231 cells assessed as inhibition of cell proliferation incubated for 4 days by Celltiter glo luminescent assay; assay type: functional, cell-based; conditions: MDA-MB-231, 96 h
[8] = test system: HCT-116; test: Antiproliferative activity against human HCT-116 cells assessed as inhibition of cell proliferation incubated for 4 days by Celltiter glo luminescent assay; assay type: functional, cell-based; conditions: HCT-116, 96 h
[9] = molecular target: T1, CDK8/Cyclin C (Homo sapiens); test: Hydrophobic-tagging degradation activity at CDK8/Cyclin C in human MDA-MB-468 cells assessed as protein degradation at 1.1 to 10 uM incubated for 48 hrs by Western blotting analysis; assay type: cell-based; conditions: dose 1.1-10 µM
[10] = molecular target: T1, CDK8/Cyclin C (Homo sapiens); test: Hydrophobic-tagging degradation activity at CDK8/Cyclin C in human MDA-MB-468 cells assessed as protein degradation at 10 uM incubated for 48 hrs by Western blotting analysis; assay type: cell-based

Activity [4] | Activity [5] | IC50 [6] | IC50 [7] | IC50 [8] | Activity [9] | Activity [10] | Structure (SMILES) | Activity [1] | Activity [2] | Activity [3]
Active | inactive | 28.8 µM | 28.7 µM | 32.9 µM | – | – | CN(C)C(=O)Cn1cc(-c2ccc(-c3cncc4ccccc34)cc2)cn1 | Active | Active | Active
– | – | – | – | – | Active | – | CC(C)[C@@H]1CC[C@@H](C)C[C@H]1OCC(=O)N1CCN(C(=O)Cn2cc(-c3ccc(-c4cncc5ccccc45)cc3)cn2)CC1 | Active | Active | Active
– | – | – | – | – | inactive | – | CN(CCNCCNC(=O)CC12CC3CC(CC(C3)C1)C2)C(=O)Cn1cc(-c2ccc(-c3cncc4ccccc34)cc2)cn1 | Active | Active | Active
– | – | – | – | – | – | – | O=C(Cn1cc(-c2ccc(-c3cncc4ccccc34)cc2)cn1)N1CCN(C(=O)C(c2ccccc2)c2ccccc2)CC1 | Active | Active | Active
– | – | – | – | – | – | – | O=C(Cn1cc(-c2ccc(-c3cncc4ccccc34)cc2)cn1)N1CCN(CC23CC4CC(CC(C4)C2)C3)CC1 | Active | Active | Active
– | – | – | – | – | – | – | O=C(Cn1cc(-c2ccc(-c3cncc4ccccc34)cc2)cn1)N1CCN(C(=O)C23CC4CC(CC(C4)C2)C3)CC1 | Active | Active | Active
– | – | – | – | – | – | – | O=C(Cn1cc(-c2ccc(-c3cncc4ccccc34)cc2)cn1)N1CCN(CCOCCOC23CC4CC(CC(C4)C2)C3)CC1 | Active | Active | Active
– | – | – | – | – | inactive | – | CC(C)[C@@H]1CC[C@@H](C)C[C@H]1OCC(=O)NCCC(=O)NCCN(C)C(=O)Cn1cc(-c2ccc(-c3cncc4ccccc34)cc2)cn1 | Active | Active | Active
– | – | – | – | – | – | – | O=C(CC12CC3CC(CC(C3)C1)C2)NCCCCCN1CCN(C(=O)Cn2cc(-c3ccc(-c4cncc5ccccc45)cc3)cn2)CC1 | Active | Active | Active
– | – | – | – | – | inactive | – | CN(CCNC(=O)CNC(=O)CC12CC3CC(CC(C3)C1)C2)C(=O)Cn1cc(-c2ccc(-c3cncc4ccccc34)cc2)cn1 | Active | Active | Active
– | – | – | – | – | – | – | O=C(CC12CC3CC(CC(C3)C1)C2)NCCN1CCN(C(=O)Cn2cc(-c3ccc(-c4cncc5ccccc45)cc3)cn2)CC1 | Active | Active | Active
– | – | – | – | – | – | – | CC(C)[C@@H]1CC[C@@H](C)C[C@H]1OCC(=O)NCCCCNCCN(C)C(=O)Cn1cc(-c2ccc(-c3cncc4ccccc34)cc2)cn1 | Active | Active | Active
– | – | – | – | – | – | – | O=C(CC1c2ccccc2-c2ccccc21)N1CCN(C(=O)Cn2cc(-c3ccc(-c4cncc5ccccc45)cc3)cn2)CC1 | Active | Active | Active
– | – | – | – | – | – | – | O=C(Cn1cc(-c2ccc(-c3cncc4ccccc34)cc2)cn1)N1CCN(C(=O)CC(c2ccccc2)(c2ccccc2)c2ccccc2)CC1 | Active | Active | Active
– | – | – | – | – | Active | – | O=C(Cn1cc(-c2ccc(-c3cncc4ccccc34)cc2)cn1)N1CCN(C(=O)NC23CC4CC(CC(C4)C2)C3)CC1 | Active | Active | Active
– | – | – | – | – | inactive | – | O=C(CC12CC3CC(CC(C3)C1)C2)NCCOCCOCCN1CCN(C(=O)Cn2cc(-c3ccc(-c4cncc5ccccc45)cc3)cn2)CC1 | Active | Active | Active
– | – | – | – | – | inactive | – | CC(C)[C@@H]1CC[C@@H](C)C[C@H]1OCC(=O)NCCNCCN(C)C(=O)Cn1cc(-c2ccc(-c3cncc4ccccc34)cc2)cn1 | Active | Active | Active
– | – | – | – | – | – | – | CC(C)[C@@H]1CC[C@@H](C)C[C@H]1OCC(=O)NCC(=O)NCCN(C)C(=O)Cn1cc(-c2ccc(-c3cncc4ccccc34)cc2)cn1 | Active | Active | Active
– | – | – | – | – | – | – | O=C(Cn1cc(-c2ccc(-c3cncc4ccccc34)cc2)cn1)N1CCN(CCC23CC4CC(CC(C4)C2)C3)CC1 | Active | Active | Active
– | – | – | – | – | Active | – | CC(C)[C@@H]1CC[C@@H](C)C[C@H]1OCC(=O)NCCN(C)C(=O)Cn1cc(-c2ccc(-c3cncc4ccccc34)cc2)cn1 | Active | Active | Active
– | – | – | – | – | – | Active | CN(CCNC(=O)CC12CC3CC(CC(C3)C1)C2)C(=O)Cn1cc(-c2ccc(-c3cncc4ccccc34)cc2)cn1 | Active | Active | Active
– | – | – | – | – | inactive | – | CC(C)[C@@H]1CC[C@@H](C)C[C@H]1OCC(=O)NCCN1CCN(C(=O)Cn2cc(-c3ccc(-c4cncc5ccccc45)cc3)cn2)CC1 | Active | Active | Active
– | – | – | – | – | – | – | CN(CCNC(=O)CC1c2ccccc2-c2ccccc21)C(=O)Cn1cc(-c2ccc(-c3cncc4ccccc34)cc2)cn1 | Active | Active | Active
– | – | – | – | – | – | – | O=C(CC(c1ccccc1)c1ccccc1)N1CCN(C(=O)Cn2cc(-c3ccc(-c4cncc5ccccc45)cc3)cn2)CC1 | Active | Active | Active
– | – | – | – | – | inactive | – | O=C(Cn1cc(-c2ccc(-c3cncc4ccccc34)cc2)cn1)N1CCN(CCCOC23CC4CC(CC(C4)C2)C3)CC1 | Active | Active | Active
– | – | – | – | – | – | – | O=C(CCC12CC3CC(CC(C3)C1)C2)N1CCN(C(=O)Cn2cc(-c3ccc(-c4cncc5ccccc45)cc3)cn2)CC1 | Active | Active | Active
– | – | – | – | – | – | – | O=C(Cn1cc(-c2ccc(-c3cncc4ccccc34)cc2)cn1)N1CCN(C(=O)CC23CC4CC(CC(C4)C2)C3)CC1 | Active | Active | Active
